Tests used:
[1] = system: Hsp90 chaperoning machine; test: progesterone receptor (PR) refolding assay using reticulocyte lysate (RRL); format: biochemical; conditions: protein complex analysis; 10 μM EnnA, 1 μM 17-AAG
Description: (§1) The first bar indicates 100% folding activity of RRL without inhibitor. PR22 indicates the antibody without PR but with RRL and EnnA. PR represents the antibody (PR22) with PR but without RRL. All other samples have PR22, PR, and RRL without (first bar) or with increased concentration of EnnA. FIGS. 1C-1E are line graphs of cell survival versus EnnA concentration (μM) in breast cancer cell lines Hs578T (FIG. 1C), […] (FIG. 1D) and MDA-MB231 (FIG. 1E) upon treatment with EnnA for 48 and 72 h. […] PR alone (PR), antibody (PR22)+RRL, PR+RRL without inhibitor (RRL), PR+RRL with 1 μM 17-AAG (17AAG) PR+RRL with 10 μM BEAU or EnnA. FIGS. 1G-1I are autoradiographs of Western blots of cytosols from various cell lines treated with 17-AAG (1 μM) or EnnA (3 μM) with antibodies against the specified proteins. FIG. 1J is an autoradiograph showing EnnA causes autophagy in Hs578T and MDA-MB453 cell lines. FIGS. 1K-1N are electron microscopy micrographs showing autophagosomes and reduced mitochondria content in Hs578T cells treated with DMSO or EnnA. FIGS. 1O-1P are fluorescence micrographs showing EnnA causing reduced mitochondria content in Hs578T cells. FIGS. 1Q-1BB are fluorescence micrographs showing mitophagy in Hsp578T cells treated with EnnA as indicated by colocalization of the mitochondria marker Cox4 and the autophagy marker LC3BII.
A cell-free high-throughput screen (HTS) platform based on the progesterone receptor (PR) using reticulocyte lysate (RRL) as a source of molecular chaperones was used to screen 175 natural products (Patwardhan C A, et al., J Biomol Screen (2014)). This assay captures the physiological steps of PR refolding by the Hsp90 chaperoning machine and measures the recovery of its hormone-binding activities after mild heat treatment. It has the ability to identify inhibitors as well as activators of the core components of the Hsp90 chaperoning machine (i.e., Hsp90, Hsp70, Hsp40, Hsp90/Hsp70 organizing protein (HOP), and p23), including compounds that target chaperone complexes as well as individual proteins.

[2] = system: Hs587T and MDA-MB-453 cell lines; test: autophagy, mitochondria content and mitophagy in treated cancer cells; format: cell-based, human; conditions: Hs587T and MDA-MB-453 cell lines
Description: as §1

AB1-HA tumor = conditions: CTX treatment at Day 9; cited from earlier work
[3] = preclinical studies; cited from earlier work
KB-3-1 cervix carcinoma = conditions: cited from earlier work

## C=CCNC1=C2C[C@@H](C)C[C@H](OC)[C@H](O)[C@@H](C)/C=C(\C)[C@H](OC(N)=O)[C@@H](OC)/C=C\C=C(/C)C(=O)NC(=CC1=O)C2=O [17-AAG, reference compound]
[1]
  accumulation of Hsp70-rich PR complexes: observed
[2]
  mode of cell death (apoptosis / autophagy): induces apoptosis

## O=P1(N(CCCl)CCCl)NCCCO1 (centres unmarked) [CTX, Cyclophosphamide]
AB1-HA tumor
  cure rate: 75%

## CC(C)[C@H]1C(=O)O[C@H](C(C)C)C(=O)N(C)[C@@H](C(C)C)C(=O)O[C@H](C(C)C)C(=O)N(C)[C@@H](C(C)C)C(=O)O[C@H](C(C)C)C(=O)N1C [Enniatin B]
[3]
  anti-angiogenic activity: anti-angiogenic activity
KB-3-1 cervix carcinoma
  reduction of tumor growth in combination with sorafenib: synergizes with sorafenib

Reference: patent publication US11446352B2, “Compositions and methods for inhibiting tumor-induced immune suppression” (priority 2017, dated 2022)
